Data taken from patent US8815811B2, “Peptides and methods for their preparation and use” (Eli Lilly and Company, priority 2010, dated 2014).
Where no end group is shown, it is not given here. [ ]: non-standard residue; d: D form. 1Nal = N[C@@H](Cc1cccc2ccccc12)C(=O)O; Aib = CC(C)(N)C(=O)O

How the values were obtained:
hGlucR = biological target: T1, hGlucR (Homo sapiens, UniProt P47871); test: Glucagon receptor (hGlucR) binding assay (SPA, I-125 glucagon); details: hGlucR 293HEK membranes
T1 construct: expressed in transfected cells; host or cells: 293HEK, Hygromycin-selected, phD expression plasmid
Protocol: The hGlucR cDNA is subcloned into the expression plasmid phD (Trans-activated expression of fully gamma-carboxylated recombinant human protein C, an antithrombotic factor. Grinnell, B. W., et. al., Bio/Technology 5: 1189-1192 (1987)). This plasmid DNA is transfected into 293HEK cells and selected with 200 μg/mL Hygromycin.
Crude plasma membranes are prepared using cells from suspension culture. The cells are lysed on ice in hypotonic buffer containing 25 mM Tris HCl, pH 7.5, 1 mM MgCl2, DNAse1, 20 μ/mL, and Roche Complete™ Inhibitors without EDTA. The cell suspension is homogenized with a glass dounce homogenizer using a Teflon® pestle for 25 strokes. The homogenate is centrifuged at 4° C. at 1800×g for 15 minutes. The supernatant is collected and the pellet is resuspended in hypotonic buffer and rehomogenized. The mixture is centrifuged at 1800×g for 15 minutes. The second supernatant is combined with the first supernatant. […]
The binding buffer contains 25 mM 4-(2-hydroxyethyl)-1-piperazineethanesulfonic acid (HEPES), pH 7.4, 2.5 mM CaCl2, 1 mM MgCl2, 0.1% fatty acid free BSA, 0.003% Tween20, and Roche Complete™ Inhibitors without EDTA. […] Plates are read with a PerkinElmer Life and Analytical Sciences Trilux MicroBeta® scintillation counter after 12 hours of settling time at room temperature.
Results are calculated as a percent of specific I-125-glucagon binding in the presence of compound. […]

Normal male Wistar rats = test: Intravenous glucose tolerance test in normal rats; format: in vivo; details: IVGTT; for insulin AUC: 0 to 30 min
Protocol: Effects on Blood Glucose Excursion During an Intravenous Glucose Tolerance Test in Normal Rats
Normal male Wistar rats (225-250 g) are used in the study. Animals are randomized into groups based on fed body weight and blood glucose. Animals are injected with vehicle or peptide analog (dose 3-400 μg peptide content/kg) 16 hours prior to the start of the test. Food is removed at the time of injection. Prior to the assay the animals are put under anesthesia, Phenobarbital 65 mg/kg i.p., and two catheters are inserted, one in the jugular vein and the other in the carotid artery. At time 0, animals are given 0.5 g glucose/kg through the venous catheter. Blood is collected from the carotid artery at time 0 (pre glucose), 2, 4, 6, 10, 20 and 30 minutes after glucose challenge. Glucose concentration is measured by glucometer. Insulin is measured by Mesoscale®. Efficacy is measured as the increase in total area under the insulin curve (=integrated plasma insulin values from t+0 to 30 min) as well as the area under the glucose curve which is a measure of the glucose excursion following the intravenous glucose challenge.

DIO mice = test: Oral glucose tolerance test after 2-week treatment in DIO mice; format: in vivo
Protocol: Fifty-six hours after the last injection of compound in the DIO study above the animals were subjected to an oral glucose tolerance test. In short, mice were fasted for 16 hours prior to the start of the glucose tolerance test. At time 0, animals are given 2 g/kg dextrose by oral gavage. Blood is collected by tail bleeding taken 0, 15, 30, 60 and 120 minutes after glucose challenge. Glucose concentration is measured by glucometer.

[1] = test system: diet-induced obese (DIO) mice; test: Effects on food intake, body weight and body composition in DIO mice; format: in vivo; details: for Fat mass loss (g fat weight change for 14 days) / Total food intake (g total for 14 days) / Overall weight loss (g weight change for 14 days): DIO mice
Protocol: Effects on Food Intake, Body Weight and Body Composition in Diet-Induced Obese (DIO) Mice
Three to four months old male diet-induced obese (DIO) mice are used. Animals are individually housed in a temperature-controlled (24° C.) facility with a 12 hour light/dark cycle (lights on 22:00), and have free access to food and water. After 2 weeks acclimation to the facility, mice are randomized to treatment groups (n=8-10/group) so that each group has similar mean body weight and fat mass. Before the experiment, mice are subcutaneously (sc) injected with vehicle solution and weighed for 7 days to acclimate them to the procedures.
Vehicle or peptide analog (dose range 10-100 nmol/Kg) dissolved in vehicle is administered by sc injection to ad libitum fed DIO mice 30-90 minutes prior to the onset of the dark cycle […] for 2 to 4 weeks. Body weight and the weight of food plus the hopper are measured at the same time. Food consumed in the last 24 hours is calculated by subtracting current weight of food plus the hopper from that of the previous day. Absolute changes in body weight are calculated by subtracting the body weight of the animal prior to the first injection. On days −1 and 14, total fat mass is measured by nuclear magnetic resonance (NMR) using an Echo Medical System (Houston, Tex.) instrument. Fat free mass is calculated by subtracting fat mass from total body weight.

[2] = test system: ovariectomized (OvX) Sprague Dawley rats; test: Skeletal effects in ovariectomized (OvX) Sprague Dawley rats; format: in vivo
Protocol: Example 4 was evaluated in 6 months old, ovariectomized (OvX; see Endocrinology 144: 2008-2015), Sprague Dawley rats. Doses of 0, 2.9, 9.7, or 29 nmol/kg were given to the rats as daily subcutaneous injections starting 9 days post surgery. […] It should be noted that loss in body weight (8% in this study) can directly affect bone mass. Bone strength is load dependent and losing weight results in a lower load on bones that carry weight and as a consequence less impact is observed on skeletal parameters of bones that carry weight, i.e. the femur cortical bone. Statistical significances were evaluated by a one-way ANOVA followed by a Dunnett's test.

[3] = OvX rats, 2.9 nmol/kg daily sc, 35 days
[4] = OvX rats, 9.7 nmol/kg daily sc, 35 days
[5] = OvX rats, 29 nmol/kg daily sc, 35 days

T1 sequence (P47871 26-477): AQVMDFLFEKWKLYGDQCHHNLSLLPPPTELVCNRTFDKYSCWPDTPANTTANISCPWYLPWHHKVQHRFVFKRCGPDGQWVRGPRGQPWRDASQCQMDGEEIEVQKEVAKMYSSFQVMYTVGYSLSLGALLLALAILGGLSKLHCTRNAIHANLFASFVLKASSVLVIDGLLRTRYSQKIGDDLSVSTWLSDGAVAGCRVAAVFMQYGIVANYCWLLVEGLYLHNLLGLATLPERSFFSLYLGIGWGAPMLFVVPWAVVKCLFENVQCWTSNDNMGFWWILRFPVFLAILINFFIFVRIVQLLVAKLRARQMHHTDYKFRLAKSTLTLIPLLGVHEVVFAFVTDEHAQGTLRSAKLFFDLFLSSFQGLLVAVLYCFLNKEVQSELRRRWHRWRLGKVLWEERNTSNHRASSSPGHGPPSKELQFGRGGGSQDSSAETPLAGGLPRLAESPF

Aib^2, Aib^13, Nal^22, Aib^29, Cys^43(PEG20K), Cys^44 (PEG20K)-GIP (Y[Aib]EGTFTSDYSI[Aib]LDKIAQRA[1Nal]VQWLIA[Aib]KGKKQEWKHQITQC(PEG 20 kDa)C(PEG 20 kDa)-NH2) [Example 4]
Ki (hGlucR): > 7.49 µM
insulin AUC and glucose AUC compared to vehicle-treated rats (Normal male Wistar rats): increased insulin AUC and decreased glucose AUC
glucose AUC (Normal male Wistar rats; 50 μg/Kg): 7730 mg·min/dL
insulin AUC (Normal male Wistar rats; 50 μg/Kg 16 hours before test): 150 ng·min/mL
glucose AUC (Normal male Wistar rats; 200 μg/Kg): 7420 mg·min/dL
insulin AUC (Normal male Wistar rats; 200 μg/Kg 16 hours before test): 161 ng·min/mL
glucose excursion following an oral glucose load (DIO mice; DIO mice, summary of Tables 7a and 7b): significantly reduced
Glucose AUC, MEAN (DIO mice; Table 7a, OGTT 2 g/kg dextrose, 56 h after last injection, 10 nmol/Kg): 11725 mg·min/dL
Glucose AUC, MEAN (DIO mice; Table 7a, OGTT, 30 nmol/Kg): 10907 mg·min/dL
Glucose AUC, MEAN (DIO mice; Table 7b, OGTT, 10 nmol/Kg): 13719 mg·min/dL
cumulative food intake and body weight compared to vehicle-treated mice ([1]; 14-day DIO mouse studies, summary of Tables 6a and 6b): decreased
Fat mass loss (g fat weight change for 14 days) ([1]; Table 6a, 10 nmol/Kg): -3.6 ± 1.1 g
Total food intake (g total for 14 days) ([1]; Table 6a, 10 nmol/Kg): 28.4 ± 1.8 g
Overall weight loss (g weight change for 14 days) ([1]; Table 6a, 10 nmol/Kg sc every 3 days): -4.5 ± 0.3 g
Fat mass loss (g fat weight change for 14 days) ([1]; Table 6a, 30 nmol/Kg): -4.7 ± 0.4 g
Total food intake (g total for 14 days) ([1]; Table 6a, 30 nmol/Kg): 25.5 ± 2.6 g
Overall weight loss (g weight change for 14 days) ([1]; Table 6a, 30 nmol/Kg sc every 3 days): -6.0 ± 0.4 g
Fat mass loss (g fat weight change for 14 days) ([1]; Table 6b, 10 nmol/Kg): -3.6 ± 0.3 g
Overall weight loss (g weight change for 14 days) ([1]; Table 6b, 10 nmol/Kg): -4.9 ± 0.4 g
Total food intake (g total for 14 days) ([1]; Table 6b, 10 nmol/Kg): 26.9 ± 1.5 g
Bone mineral density (BMD) of lumbar vertebrae, MEAN [2, 3]: 557 mg/mL
Changes in bone mineral content (BMC) of lumbar vertebrae, Bone mineral density (mg), MEAN [2, 3]: 9.75 mg
Bone mineral density (BMD) of lumbar vertebrae, MEAN [2, 4]: 558 mg/mL
Changes in bone mineral content (BMC) of lumbar vertebrae, Bone mineral density (mg), MEAN [2, 4]: 9.98 mg
Bone mineral density (BMD) of lumbar vertebrae, MEAN [2, 5]: 588 mg/mL
Changes in bone mineral content (BMC) of lumbar vertebrae, Bone mineral density (mg), MEAN [2, 5]: 10.49 mg
reduction of food consumption and body weight ([2]; OvX rats, 2.9-29 nmol/kg daily, 35 days, dose responsive): up to 8%
OvX induced loss in bone mineral content and bone mineral density in lumbar vertebrae ([2]; OvX rats, 35 days): dose-dependently prevented
adverse effect on bone mineral density or bone mineral content in the femur and lumbar vertebra ([2]; OvX rats, 35 days): did not adversely affect
effect in mid femur cortical bone (BMC, BMD) ([2]; OvX rats, 35 days): no effect
fat mass ([2]; OvX rats, 35 days): decreased fat mass
lean mass ([2]; OvX rats, 35 days): no change
non-fasted serum glucose and triglycerides ([2]; OvX rats, 35 days): decreased
BMC and BMD in OvX rats ([2]; summary of Tables 8 and 9): improves
